Source: the supplement of paper PMC4862054
Values joined by “and” are separate entries in the source; they are usually repeats but may differ in a detail not shown here. Equal values may be shown once.

Legend:
Conditions in all cases: incubation time: 72 h
CAL-148 [1] = assay: normalised viability (% of control), CellTiter-Blue; higher = more viable cells (about 100 = DMSO control)
Procedure: (§1)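 DSRT, CellTiter-Blue viability, 72 h incubation. Signal is normalised to DMSO and benzethonium chloride controls. Value is the normalised response at dose 6.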

CAL-51 [2] = assay: as above
Procedure: as §1

CAL-85-1 [3] = assay: as above
Procedure: as §1

DU-4475 [4] = assay: as above
Procedure: as §1

HDQ-P1 [5] = assay: as above
Procedure: as §1

MDA-MB-453 [6] = assay: as above
Procedure: as §1

CAL-148 [7] = assay: as above; remark: listed apart in the source
Procedure: (§2)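 DSRT, CellTiter-Blue viability, 72 h incubation. Signal is normalised to DMSO and benzethonium chloride controls. Value is the normalised response at dose 7.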

CAL-51 [8] = assay: as above; remark: listed apart in the source
Procedure: as §2

CAL-85-1 [9] = assay: as above; remark: listed apart in the source
Procedure: as §2

DU-4475 [10] = assay: as above; remark: listed apart in the source
Procedure: as §2

HDQ-P1 [11] = assay: as above; remark: listed apart in the source
Procedure: as §2

MDA-MB-453 [12] = assay: as above; remark: listed apart in the source
Procedure: as §2

CAL-148 [13] = assay: as above; remark: listed apart in the source
Procedure: (§3)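 DSRT, CellTiter-Blue viability, 72 h incubation. Signal is normalised to DMSO and benzethonium chloride controls. Value is the normalised response at dose 8.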

CAL-51 [14] = assay: as above; remark: listed apart in the source
Procedure: as §3

CAL-85-1 [15] = assay: as above; remark: listed apart in the source
Procedure: as §3

DU-4475 [16] = assay: as above; remark: listed apart in the source
Procedure: as §3

MDA-MB-453 [17] = assay: as above; remark: listed apart in the source
Procedure: as §3

BT-474 [18] = assay: normalised response (% of control), CellTox Green; higher = less cell death (100 = DMSO, 0 = benzethonium chloride kill control)
In short: (§4)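 Each value is the plate-normalised signal at one concentration of the series. Breast cancer cell lines (20 µl suspension) were incubated 72 h in 384-well plates with compound at 5 concentrations in 10-fold steps over a compound-specific 10,000-fold range. CellTox Green and then CellTiter-Glo were read, and each plate was scaled to 0.1 % DMSO (100) and a positive kill control (0).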

BT-549 [19] = assay: as above
In short: as §4

CAL-120 [20] = assay: as above
In short: as §4

CAL-148 [21] = assay: as above
In short: as §4

CAL-51 [22] = assay: as above
In short: as §4

CAL-85-1 [23] = assay: as above
In short: as §4

DU-4475 [24] = assay: as above
In short: as §4

HCC1143 [25] = assay: as above
In short: as §4

HCC1599 [26] = assay: as above
In short: as §4

HCC1937 [27] = assay: as above
In short: as §4

HDQ-P1 [28] = assay: as above
In short: as §4

Hs578T [29] = assay: as above
In short: as §4

MCF-10A [30] = assay: as above
In short: as §4

MDA-MB-231 [31] = assay: as above
In short: as §4

MDA-MB-436 [32] = assay: as above
In short: as §4

MDA-MB-453 [33] = assay: as above
In short: as §4

MDA-MB-468 [34] = assay: as above
In short: as §4

MFM-223 [35] = assay: as above
In short: as §4

BT-474 [36] = assay: normalised response (% of control), CellTiter-Glo; higher = more viable cells (100 = DMSO, 0 = benzethonium chloride kill control)
In short: as §4

BT-549 [37] = assay: as above
In short: as §4

CAL-120 [38] = assay: as above
In short: as §4

CAL-148 [39] = assay: as above
In short: as §4

CAL-51 [40] = assay: as above
In short: as §4

CAL-85-1 [41] = assay: as above
In short: as §4

DU-4475 [42] = assay: as above
In short: as §4

HCC1143 [43] = assay: as above
In short: as §4

HCC1599 [44] = assay: as above
In short: as §4

HCC1937 [45] = assay: as above
In short: as §4

HDQ-P1 [46] = assay: as above
In short: as §4

Hs578T [47] = assay: as above
In short: as §4

MCF-10A [48] = assay: as above
In short: as §4

MDA-MB-231 [49] = assay: as above
In short: as §4

MDA-MB-436 [50] = assay: as above
In short: as §4

MDA-MB-453 [51] = assay: as above
In short: as §4

MDA-MB-468 [52] = assay: as above
In short: as §4

MFM-223 [53] = assay: as above
In short: as §4

SK-BR-3 = assay: as above
In short: as §4

Cc1cccc(-c2nn3c(c2-c2ccnc4ccc(C(N)=O)cc24)CCC3)n1 (30 nM)
normalised viability (CAL-148 [1]): 89.8% | normalised viability (CAL-51 [2]): 103% | normalised viability (CAL-85-1 [3]): 96.7% | normalised viability (DU-4475 [4]): 95.8% | normalised viability (HDQ-P1 [5]): 100% | normalised viability (MDA-MB-453 [6]): 93.3%

Cn1cc(CNCC2CCN(c3ncc(C(=O)NO)cn3)CC2)c2ccccc21 (30 nM)
normalised viability (CAL-148 [1]): 24.2% | normalised viability (CAL-51 [2]): 70.1% | normalised viability (CAL-85-1 [3]): 38.9% | normalised viability (DU-4475 [4]): 29.3% | normalised viability (HDQ-P1 [5]): 37.5% | normalised viability (MDA-MB-453 [6]): 4.37%

Cc1cccc(-c2nn3c(c2-c2ccnc4ccc(C(N)=O)cc24)CCC3)n1 (100 nM)
normalised viability (CAL-148 [7]): 104% | normalised viability (CAL-51 [8]): 97.6% | normalised viability (CAL-85-1 [9]): 89.5% | normalised viability (DU-4475 [10]): 108% | normalised viability (HDQ-P1 [11]): 120% | normalised viability (MDA-MB-453 [12]): 93.4%

Cn1cc(CNCC2CCN(c3ncc(C(=O)NO)cn3)CC2)c2ccccc21 (100 nM)
normalised viability (CAL-148 [7]): 3.75% | normalised viability (CAL-51 [8]): 36.7% | normalised viability (CAL-85-1 [9]): 16.6% | normalised viability (DU-4475 [10]): 12.3% | normalised viability (HDQ-P1 [11]): 33.5% | normalised viability (MDA-MB-453 [12]): 2.32%

COc1ccc(-c2cc3c(C)nc(N)nc3n([C@H]3CC[C@H](OCCO)CC3)c2=O)cn1 (300 nM)
normalised viability (CAL-148 [1]): 42.2% | normalised viability (CAL-51 [2]): 30.1% | normalised viability (CAL-85-1 [3]): 49.9% | normalised viability (DU-4475 [4]): 65.8% | normalised viability (HDQ-P1 [5]): 18% | normalised viability (MDA-MB-453 [6]): 16.9%

O=C(NC[C@H](O)CO)c1ccncc1Nc1ccc(I)cc1F (300 nM)
normalised viability (CAL-148 [1]): 82.7% | normalised viability (CAL-51 [2]): 85.9% | normalised viability (CAL-85-1 [3]): 77.3% | normalised viability (DU-4475 [4]): 0.69% | normalised viability (HDQ-P1 [5]): 57.6% | normalised viability (MDA-MB-453 [6]): 98%

O=C(NC[C@H](O)CO)c1ccncc1Nc1ccc(I)cc1F (1000 nM)
normalised viability (CAL-148 [7]): 77.3% | normalised viability (CAL-51 [8]): 78.2% | normalised viability (CAL-85-1 [9]): 65.3% | normalised viability (DU-4475 [10]): 0.41% | normalised viability (HDQ-P1 [11]): 58.5% | normalised viability (MDA-MB-453 [12]): 77.4%

Nc1nc(=O)c2c([nH]1)NCC(CNc1ccc(C(=O)N[C@@H](CCC(=O)O)C(=O)O)cc1)N2C=O (mixture of isomers) [Folinic acid] (99 nM)
normalised viability (CAL-148 [7]): 97.8% | normalised viability (CAL-51 [8]): 93% | normalised viability (CAL-85-1 [9]): 87.2% | normalised viability (DU-4475 [10]): 104% | normalised viability (HDQ-P1 [11]): 134% | normalised viability (MDA-MB-453 [12]): 103%

O=S(=O)(c1cccc2cnccc12)N1CCCNCC1 [Fasudil] (1000 nM)
normalised viability (CAL-148 [7]): 90.7% | normalised viability (CAL-51 [8]): 115% | normalised viability (CAL-85-1 [9]): 101% | normalised viability (DU-4475 [10]): 120% | normalised viability (HDQ-P1 [11]): 111% | normalised viability (MDA-MB-453 [12]): 101%

CS(=O)(=O)N1CCN(Cc2cc3nc(-c4cccc5[nH]ncc45)nc(N4CCOCC4)c3s2)CC1 [GDC-0941] (1000 nM)
normalised viability (CAL-148 [7]): 54% | normalised viability (CAL-51 [8]): 39.5% | normalised viability (CAL-85-1 [9]): 58.4% | normalised viability (DU-4475 [10]): 105% | normalised viability (HDQ-P1 [11]): 25% | normalised viability (MDA-MB-453 [12]): 12%

COc1nc(N)nc2c1ncn2[C@@H]1O[C@H](CO)[C@@H](O)[C@@H]1O [Nelarabine] (300 nM)
normalised viability (CAL-148 [1]): 88.9% and 89.2% | normalised viability (CAL-51 [2]): 101% and 97.9% | normalised viability (CAL-85-1 [3]): 100% and 97.8% | normalised viability (DU-4475 [4]): 113% and 116% | normalised viability (MDA-MB-453 [6]): 102% and 99.1%

c1cc(CN2CCCNCCNCCCNCC2)ccc1CN1CCCNCCNCCCNCC1 [Plerixafor] (250 nM)
normalised viability (CAL-148 [7]): 84.4% | normalised viability (CAL-51 [8]): 105% | normalised viability (CAL-85-1 [9]): 94.3% | normalised viability (DU-4475 [10]): 97.2% | normalised viability (HDQ-P1 [11]): 121% | normalised viability (MDA-MB-453 [12]): 104%

CNC(=O)c1cc(Oc2ccc(NC(=O)Nc3ccc(Cl)c(C(F)(F)F)c3)cc2)ccn1 [Sorafenib] (300 nM)
normalised viability (CAL-148 [13]): 93.4% and 99% | normalised viability (CAL-51 [14]): 109% and 102% | normalised viability (CAL-85-1 [15]): 83.4% and 99.7% | normalised viability (DU-4475 [16]): 104% and 99.8% | normalised viability (MDA-MB-453 [17]): 96.8% and 108%

CCN(CC)CCNC(=O)c1c(C)[nH]c(/C=C2\C(=O)Nc3ccc(F)cc32)c1C [Sunitinib] (10 nM)
normalised response (BT-474 [18]): 100% | normalised response (BT-549 [19]): 92.9% | normalised response (CAL-120 [20]): 99.3% | normalised response (CAL-148 [21]): 105% | normalised response (CAL-51 [22]): 108% | normalised response (CAL-85-1 [23]): 89.5% | normalised response (DU-4475 [24]): 98.4% | normalised response (HCC1143 [25]): 57.7% | normalised response (HCC1599 [26]): 114% | normalised response (HCC1937 [27]): 66.9% | normalised response (HDQ-P1 [28]): 111% | normalised response (Hs578T [29]): 82.4% | normalised response (MCF-10A [30]): 109% | normalised response (MDA-MB-231 [31]): 104% | normalised response (MDA-MB-436 [32]): 103% | normalised response (MDA-MB-453 [33]): 107% | normalised response (MDA-MB-468 [34]): 141% | normalised response (MFM-223 [35]): 98% | normalised response (BT-474 [36]): 101% | normalised response (BT-549 [37]): 108% | normalised response (CAL-120 [38]): 109% | normalised response (CAL-148 [39]): 106% | normalised response (CAL-51 [40]): 98.8% | normalised response (CAL-85-1 [41]): 103% | normalised response (DU-4475 [42]): 104% | normalised response (HCC1143 [43]): 108% | normalised response (HCC1599 [44]): 96.3% | normalised response (HCC1937 [45]): 99.2% | normalised response (HDQ-P1 [46]): 99.3% | normalised response (Hs578T [47]): 103% | normalised response (MCF-10A [48]): 98.5% | normalised response (MDA-MB-231 [49]): 107% | normalised response (MDA-MB-436 [50]): 96.9% | normalised response (MDA-MB-453 [51]): 97.4% | normalised response (MDA-MB-468 [52]): 102% | normalised response (MFM-223 [53]): 105% | normalised response (SK-BR-3): 101%
